Key:
Type in all cases: cell-based
Gal4-PPARgammaLBD = biological target: T1, Gal4-PPARgammaLBD (Homo sapiens, UniProt P37231); assay: PPARgamma transactivation assay (Gal4-PPARgammaLBD, UASx4-TK-luc reporter); details: 10 μM
T1 construct: expressed in transfected cells; host or cells: mouse embryonic fibroblasts (MEFs) or ME3 cells
T1 sequence (P37231 204-505): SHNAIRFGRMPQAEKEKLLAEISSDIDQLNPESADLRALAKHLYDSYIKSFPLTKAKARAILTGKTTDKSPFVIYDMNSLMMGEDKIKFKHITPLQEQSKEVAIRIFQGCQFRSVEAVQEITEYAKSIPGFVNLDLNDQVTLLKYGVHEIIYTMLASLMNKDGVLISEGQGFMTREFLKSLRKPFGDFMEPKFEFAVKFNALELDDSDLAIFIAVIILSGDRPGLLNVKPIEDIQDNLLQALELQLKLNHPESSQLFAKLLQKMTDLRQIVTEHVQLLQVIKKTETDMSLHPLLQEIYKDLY
Excerpt: This is an example of a transactivation assay for determining PPAR gamma modulating activity.
The UASx-4-TK-luc reporter construct (where UAS refers to “upstream activator sequence”) contains four Gal4-responsive elements. The plasmid Gal4-PPARgammaLBD encodes a Gal4-DBD-PPARgamma-LBD fusion protein (i.e. the DNA-binding domain, DBD, of Gal4 fused to the ligand-binding domain, LBD, of PPARgamma) capable of transactivating the UASx-4-TK-luc reporter plasmid by binding to the UAS. The CMV-beta-galactosidase plasmid (where CMV is cytomegalovirus) is used for normalization of experimental values.
The cells were replated, typically in 24 well plates, so that at the time of transfection the cells are 50-70% confluent.
Briefly, per well in a 24 well plate, UASx4TKIuc (0.2 μg) Gal4-PPARgammaLBD (or pM-hPPARgamma-LBD; 0.1 μg) and CMV-beta-galactosidase (0.05 μg) in 30 μL DMEM (free of serum and antibiotics) is mixed with 30 μL DMEM (free of serum and antibiotics) containing 1 μL metafectenein. The mixture is incubated at room temperature for 20 min to allow formation of nucleic acid-lipid complexes and then approximately 60 μL is added to each well containing the 50-60% confluent cells. […] Cells were harvested after 12-24 hours and luciferase and beta-galactosidase activities were measured according to standard protocols.
“−” means that testing was not performed.

mPPARdeltaLBD = biological target: T2, mPPARdeltaLBD (Mus musculus, UniProt P35396); assay: PPARdelta transactivation assay
T2 construct: expressed in transfected cells
T2 sequence (P35396 210-438 limits assumed): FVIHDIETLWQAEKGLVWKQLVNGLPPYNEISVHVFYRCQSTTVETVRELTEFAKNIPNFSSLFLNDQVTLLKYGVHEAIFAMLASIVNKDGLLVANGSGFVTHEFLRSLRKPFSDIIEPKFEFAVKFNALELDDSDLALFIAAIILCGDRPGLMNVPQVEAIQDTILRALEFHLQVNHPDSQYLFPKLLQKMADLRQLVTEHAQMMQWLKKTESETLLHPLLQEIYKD
Description: This example describes a transactivation assay for determining PPARdelta modulating activity.
DPD and other ligands are tested for their ability to transactivate PPARdelta essentially as described in Example 22.

3T3-L1 cells = assay: Inhibition of adipocyte differentiation assay (Oil Red O staining)
Description: To test compounds as inhibitors of adipocyte differentiation, 3T3-L1 cells are grown as above until two-day postconfluence (designated day 0), after which the cells are induced to differentiate with DMEM containing 10% fetal bovine serum (FBS), 1 μM dexamethasone (Sigma), 0.5 mM methylisobutylxanthine (Sigma), 1 μg/ml insulin (Roche Molecular Biochemicals) and the test-compound. Cells induced to differentiate in presence of solvent of the test-compounds are used as positive control. After 48 h, the cells are re-fed with DMEM containing 10% FBS supplemented with the test compound or the positive control. From day 4, cells are grown in DMEM with 10% FBS and are changed every second day until day 8. At day 8, cells are stained with Oil Red O as described below.
Cells cultured as described above are used for Oil Red staining. Dishes are washed in PBS and cells were fixed in 3.7% paraformaldehyde for 1 h and stained with oil red O as described in (Hansen et al 1999). Oil red O solution stock solution is prepared by dissolving 0.5 g of Oil Red O (Sigma) in 100 mL of isopropanol. Oil re 0 working solution is prepared by diluting a stock solution with water (6:4) followed by filtration.

3T3-L1 preadipocytes = assay: Glucose uptake assay
Description: This example illustrates that compounds identified as PPARgamma agonists also produce a physiological effect in cellular assays, expected of a PPARgamma agonist, namely an effect on glucose uptake. Glucose uptake assays are important to establish the suitability of a compound for the treatment of insulin resistance.
Briefly, 3T3-L1 preadipocytes are grown in 12-well plates until confluence. Cells are washed with serum-free DMEM and incubated with 1 ml of the same medium at 37° C. for 1-2 h. The cells are then washed with Krebs-Ringer-Hepes (KRP) buffer and then incubated with 0.9 ml KRP buffer at 37° C. for 30 min. Insulin is added to the cells at 0, 0.3, 1 and 3 nM final concentrations and incubated for 15 min at 37° C. Glucose uptake is initiated by the addition of 0.1 ml of Krebs-Ringer phosphate (KRP) buffer supplemented with 10 mM [^3H] 2-deoxy-D-glucose (1 mCi/l). After 10 min incubation at 37° C., the medium is aspirated and plates washed with ice-cold PBS to terminate the induced glucose uptake. The cells are lyzed with 0.5 ml 1% Triton X-100 and radioactivity levels determined using a scintillation counter. The results are depicted in FIG. 7.

HaCaT = assay: Proliferation of non-cancer cell line (flow cytometry); details: 20 μM, 48 hours of treatment
Description: A human cervical carcinoma cell line (HeLa) engineered to stably express a recombinant biosensor reporter activity and a non-cancer cell line, HaCaT (Boukamp et al., 1988, J. Cell Biol 106(3):761-771) was used with a Caspa Tag kit (commercially available eg from Chemicon). The detection of proliferation was carried out using a high content screening automated flow cytometer.
DPD (Substance 1) was diluted to 20 μM in cell culture medium without serum adjusted to 1% DMSO. Detection of cellular events was performed in duplicate in 96-well plates after 48 hours of treatment in the FL2 (dilution of a proliferative marker) channels of a HTS flow cytometer (FACS Calibur HTS, Becton Dickenson). At day 1, cells were seeded in 96 well plates. Cells were treated with DPD and the appropriate controls on day 2 and analysis was carried out on day 4.

O=C(O)CC/C=C\CC1COC(c2ccccc2Cl)OC1c1ccccc1O (racemic) [SN1, (Z)-6-(-2-(2-chlorophenyl)-4-(2-hydroxyphenyl)-1,3-dioxan-5-yl)hex-4-enoic acid]
PPAR transactivation higher than with DMSO alone (Gal4-PPARgammaLBD): about 10 fold | increase in PPARdelta transactivation (mPPARdeltaLBD): no or little increase in transactivation | inhibition of adipocyte differentiation (3T3-L1 cells): no significant effect | glucose uptake compared with Avandia (3T3-L1 preadipocytes): same level of glucose uptake at 10 mM as Avandia at 1 mM | effect on non-cancer cell line HaCaT (HaCaT): no effect

— patent publication US8536196B2, “Substituted 1,3-dioxanes useful as PPAR modulators” (Evolva SA, priority 2007, dated 2013)
